Measurements reported in patent publication US6737383B1, “Herbicidal oxadiazolidines” (priority 1999, dated 2004).

Key:
bedstraw = experiment: Test B pre/postemergence bedstraw; assay type: in vivo, Galium aparine
Summary of the method: (§1)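 Test chemicals in a non-phytotoxic solvent mixture with surfactant were sprayed preemergence onto planted seeds and postemergence onto plants 2 to 18 cm tall (1- to 4-leaf stage). After twelve to sixteen days in a greenhouse, injury was visually rated against untreated controls from 0 (no effect) to 10 (complete control).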

blackgrass = experiment: Test B pre/postemergence blackgrass; assay type: in vivo, Alopecurus myosuroides
Summary of the method: as §1

giant foxtail = experiment: Test B pre/postemergence giant foxtail; assay type: in vivo, Setaria faberii
Summary of the method: as §1

morningglory = experiment: Test B pre/postemergence morningglory; assay type: in vivo, Ipomoea hederacea
Summary of the method: as §1

pigweed = experiment: Test B pre/postemergence pigweed; assay type: in vivo, Amaranthus retroflexus
Summary of the method: as §1

rape = experiment: Test B pre/postemergence rape; assay type: in vivo, Brassica napus
Summary of the method: as §1

soybean = experiment: Test B pre/postemergence soybean; assay type: in vivo, Glycine max
Summary of the method: as §1

sugar beet = experiment: Test B pre/postemergence sugar beet; assay type: in vivo, Beta vulgaris
Summary of the method: as §1

velvetleaf = experiment: Test B pre/postemergence velvetleaf; assay type: in vivo, Abutilon theophrasti
Summary of the method: as §1

wheat = experiment: Test B pre/postemergence wheat; assay type: in vivo, Triticum aestivum
Summary of the method: as §1

wild oat = experiment: Test B pre/postemergence wild oat; assay type: in vivo, Avena fatua
Summary of the method: as §1

purple nutsedge = experiment: Test B pre/postemergence purple nutsedge; assay type: in vivo, Cyperus rotundus
Summary of the method: as §1

rice = experiment: Test B flood test rice; assay type: in vivo, Oryza sativa
Summary of the method: (§2)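 Read-out is a visual response score from 0 (no effect) to 10 (complete control), assigned by comparison with untreated controls. Treatment was applied at the 2-leaf stage, and plants stayed in the greenhouse for twelve to sixteen days before scoring.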

smallflower flatsedge = experiment: Test B flood test smallflower flatsedge; assay type: in vivo, Cyperus difformis
Summary of the method: as §2

duck salad = experiment: Test B flood test duck salad; assay type: in vivo, Heteranthera limosa
Summary of the method: as §2

bamyardgrass = experiment: Test B flood test barnyardgrass; assay type: in vivo, Echinochloa crus-galli
Summary of the method: as §2

[1] = Preemergence, Rate 62 g/ha, scale of 0 to 10 where 0 is no effect and 10 is complete control
[2] = Preemergence, Rate 125 g/ha, 0 is no effect, 10 is complete control
[3] = Preemergence, Rate 250 g/ha, scale 0 to 10, 0 is no effect, 10 is complete control
[4] = Preemergence, Rate 500 g/ha, scale of 0 to 10 where 0 is no effect and 10 is complete control
[5] = Rate 62 g/ha, Postemergence, scale of 0 to 10 where 0 is no effect and 10 is complete control
[6] = Rate 125 g/ha, Postemergence, scale 0 to 10
[7] = Rate 500 g/ha, Postemergence, scale 0 to 10
[8] = Rate 62 g/ha, headed Pre-emergence (flood test species), scale 0 to 10 (0 no effect, 10 complete control)
[9] = Rate 125 g/ha, Pre-emergence, flood test species, scale 0 to 10 where 0 is no effect and 10 is complete control
[10] = Rate 250 g/ha, Pre-emergence, flood-test species, scale 0 to 10, 0 is no effect, 10 is complete control
[11] = Rate 500 g/ha, Pre-emergence, flood test species, scale 0 to 10 (0 no effect, 10 complete control)

CC(C)N(C(=O)n1oc(=O)n(Cc2ccco2)c1=O)c1ccc(Cl)cc1 [Compound 206]
Bedstraw plant response rating (bedstraw; [1]): 0 | Bedstraw plant response rating (0 to 10 scale) (bedstraw; [2]): 0 | Bedstraw plant response rating (bedstraw; [3]): 0 | Plant response rating, Bedstraw (bedstraw; [4]): 0 | Bedstraw plant response rating (bedstraw; [5]): 0 | Bedstraw plant response rating (bedstraw; [6]): 0 | Plant response rating (0 to 10; 0 is no effect, 10 is complete control), Bedstraw (bedstraw; Rate 250 g/ha, Postemergence): 0 | Bedstraw plant response rating (bedstraw; [7]): 0 | Blackgrass plant response rating (blackgrass; [1]): 0 | Blackgrass plant response rating (0 to 10 scale) (blackgrass; [2]): 0 | Blackgrass plant response rating (blackgrass; [3]): 0 | Plant response rating, Blackgrass (blackgrass; [4]): 0 | Blackgrass plant response rating (blackgrass; [5]): 0 | Blackgrass plant response rating (blackgrass; [6]): 0 | Plant response rating (0 to 10; 0 is no effect, 10 is complete control), Blackgrass (blackgrass; Rate 250 g/ha, Postemergence): 0 | Blackgrass plant response rating (blackgrass; [7]): 0 | Giant foxtail plant response rating (giant foxtail; [1]): 0 | Giant foxtail plant response rating (0 to 10 scale) (giant foxtail; [2]): 3 | Giant foxtail plant response rating (giant foxtail; [3]): 8 | Plant response rating, Giant foxtail (giant foxtail; [4]): 9 | Giant foxtail plant response rating (giant foxtail; [5]): 0 | Giant foxtail plant response rating (giant foxtail; [6]): 0 | Plant response rating (0 to 10; 0 is no effect, 10 is complete control), Giant foxtail (giant foxtail; Rate 250 g/ha, Postemergence): 0 | Giant foxtail plant response rating (giant foxtail; [7]): 0 | Morningglory plant response rating (morningglory; [1]): 0 | Morningglory plant response rating (0 to 10 scale) (morningglory; [2]): 0 | Morningglory plant response rating (morningglory; [3]): 0 | Plant response rating, Morningglory (morningglory; [4]): 0 | Morningglory plant response rating (morningglory; [5]): 1 | Morningglory plant response rating (morningglory; [6]): 1 | Plant response rating (0 to 10; 0 is no effect, 10 is complete control), Morningglory (morningglory; Rate 250 g/ha, Postemergence): 2 | Morningglory plant response rating (morningglory; [7]): 5 | Redroot pigweed plant response rating (pigweed; [1]): 0 | Redroot pigweed plant response rating (0 to 10 scale) (pigweed; [2]): 0 | Redroot pigweed plant response rating (pigweed; [3]): 0 | Plant response rating, Redroot pigweed (pigweed; [4]): 3 | Redroot pigweed plant response rating (pigweed; [5]): 0 | Redroot pigweed plant response rating (pigweed; [6]): 0 | Plant response rating (0 to 10; 0 is no effect, 10 is complete control), Redroot pigweed (pigweed; Rate 250 g/ha, Postemergence): 3 | Redroot pigweed plant response rating (pigweed; [7]): 0 | Rape plant response rating (rape; [1]): 0 | Rape plant response rating (0 to 10 scale) (rape; [2]): 0 | Rape plant response rating (rape; [3]): 0 | Plant response rating, Rape (rape; [4]): 0 | Rape plant response rating (rape; [5]): 0 | Rape plant response rating (rape; [6]): 0 | Plant response rating (0 to 10; 0 is no effect, 10 is complete control), Rape (rape; Rate 250 g/ha, Postemergence): 0 | Rape plant response rating (rape; [7]): 0 | Soybean plant response rating (soybean; [1]): 0 | Soybean plant response rating (0 to 10 scale) (soybean; [2]): 1 | Soybean plant response rating (soybean; [3]): 0 | Plant response rating, Soybean (soybean; [4]): 0 | Soybean plant response rating (soybean; [5]): 0 | Soybean plant response rating (soybean; [6]): 1 | Plant response rating (0 to 10; 0 is no effect, 10 is complete control), Soybean (soybean; Rate 250 g/ha, Postemergence): 2 | Soybean plant response rating (soybean; [7]): 2 | Sugarbeets plant response rating (sugar beet; [1]): 0 | Sugarbeets plant response rating (0 to 10 scale) (sugar beet; [2]): 0 | Sugarbeets plant response rating (sugar beet; [3]): 0 | Plant response rating, Sugarbeets (sugar beet; [4]): 0 | Sugarbeets plant response rating (sugar beet; [5]): 0 | Sugarbeets plant response rating (sugar beet; [6]): 0 | Plant response rating (0 to 10; 0 is no effect, 10 is complete control), Sugarbeets (sugar beet; Rate 250 g/ha, Postemergence): 0 | Sugarbeets plant response rating (sugar beet; [7]): 0 | Velvetleaf plant response rating (velvetleaf; [1]): 0 | Velvetleaf plant response rating (velvetleaf; [3]): 0 | Plant response rating, Velvetleaf (velvetleaf; [4]): 0 | Velvetleaf plant response rating (velvetleaf; [5]): 0 | Velvetleaf plant response rating (velvetleaf; [6]): 0 | Plant response rating (0 to 10; 0 is no effect, 10 is complete control), Velvetleaf (velvetleaf; Rate 250 g/ha, Postemergence): 0 | Wheat plant response rating (wheat; [1]): 0 | Wheat plant response rating (wheat; [3]): 0 | Plant response rating, Wheat (wheat; [4]): 0 | Wheat plant response rating (wheat; [5]): 0 | Wheat plant response rating (wheat; [6]): 0 | Plant response rating (0 to 10; 0 is no effect, 10 is complete control), Wheat (wheat; Rate 250 g/ha, Postemergence): 0 | Wild oats plant response rating (wild oat; [1]): 0 | Wild oats plant response rating (wild oat; [3]): 0 | Plant response rating, Wild oats (wild oat; [4]): 0 | Wild oats plant response rating (wild oat; [5]): 0 | Wild oats plant response rating (wild oat; [6]): 0 | Plant response rating (0 to 10; 0 is no effect, 10 is complete control), Wild oats (wild oat; Rate 250 g/ha, Postemergence): 0 | Nutsedge plant response rating (purple nutsedge; [1]): 0 | Nutsedge plant response rating (0 to 10 scale) (purple nutsedge; [2]): 0 | Nutsedge plant response rating (purple nutsedge; [3]): 0 | Plant response rating, Nutsedge (purple nutsedge; [4]): 0 | Nutsedge plant response rating (purple nutsedge; [5]): 0 | Nutsedge plant response rating (purple nutsedge; [6]): 0 | Plant response rating (0 to 10; 0 is no effect, 10 is complete control), Nutsedge (purple nutsedge; Rate 250 g/ha, Postemergence): 0 | Nutsedge plant response rating (purple nutsedge; [7]): 0 | Rice plant response rating (rice; [8]): 0 | Rice plant response rating (rice; [9]): 0 | Rice plant response rating (rice; [10]): 0 | Rice plant response rating (rice; [11]): 0 | S. Flatsedge plant response rating (smallflower flatsedge; [8]): 0 | S. Flatsedge plant response rating (smallflower flatsedge; [9]): 0 | S. Flatsedge plant response rating (smallflower flatsedge; [10]): 0 | S. Flatsedge plant response rating (smallflower flatsedge; [11]): 0 | Ducksalad plant response rating (duck salad; [8]): 0 | Ducksalad plant response rating (duck salad; [9]): 0 | Ducksalad plant response rating (duck salad; [10]): 0 | Ducksalad plant response rating (duck salad; [11]): 0 | Barnyardgrass plant response rating (bamyardgrass; [8]): 0 | Barnyardgrass plant response rating (bamyardgrass; [9]): 0 | Barnyardgrass plant response rating (bamyardgrass; [10]): 0 | Barnyardgrass plant response rating (bamyardgrass; [11]): 0
